Laboratory results from patent publication US5220042A, “1,4-benzoquinone derivatives and benzene derivatives, and process for preparing the same” (priority 1984, dated 1993).
Read-outs that look alike come from different tables or passages of the source.

Assays:
5-lipoxygenase = target: T1, 5-lipoxygenase (Cavia porcellus, UniProt A0A286X958); assay: 5-Lipoxygenase inhibitory activity (conversion of 14C-arachidonic acid to 5-HETE) in guinea pig peritoneal exudate cells; assay type: cell-based, guinea pig (Hartley strain); conditions: read-out: inhibition ratio (%) of 5-lipoxygenase activity; for inhibition at 30 µM: concentration 3 × 10^-5 M; for inhibition at 3 µM: concentration 3 × 10^-6 M; for inhibition at 10 µM: concentration 10^-5 M; for inhibition at 1 µM: concentration 10^-6 M; for inhibition at 0.3 µM: concentration 3 × 10^-7 M; for inhibition at 0.1 µM: concentration 10^-7 M
T1 construct: endogenous in cells; host or cells: guinea pig (Hartley strain) casein-elicited peritoneal exudate cells, intact cell suspension
T1 sequence (A0A286X958 1-674): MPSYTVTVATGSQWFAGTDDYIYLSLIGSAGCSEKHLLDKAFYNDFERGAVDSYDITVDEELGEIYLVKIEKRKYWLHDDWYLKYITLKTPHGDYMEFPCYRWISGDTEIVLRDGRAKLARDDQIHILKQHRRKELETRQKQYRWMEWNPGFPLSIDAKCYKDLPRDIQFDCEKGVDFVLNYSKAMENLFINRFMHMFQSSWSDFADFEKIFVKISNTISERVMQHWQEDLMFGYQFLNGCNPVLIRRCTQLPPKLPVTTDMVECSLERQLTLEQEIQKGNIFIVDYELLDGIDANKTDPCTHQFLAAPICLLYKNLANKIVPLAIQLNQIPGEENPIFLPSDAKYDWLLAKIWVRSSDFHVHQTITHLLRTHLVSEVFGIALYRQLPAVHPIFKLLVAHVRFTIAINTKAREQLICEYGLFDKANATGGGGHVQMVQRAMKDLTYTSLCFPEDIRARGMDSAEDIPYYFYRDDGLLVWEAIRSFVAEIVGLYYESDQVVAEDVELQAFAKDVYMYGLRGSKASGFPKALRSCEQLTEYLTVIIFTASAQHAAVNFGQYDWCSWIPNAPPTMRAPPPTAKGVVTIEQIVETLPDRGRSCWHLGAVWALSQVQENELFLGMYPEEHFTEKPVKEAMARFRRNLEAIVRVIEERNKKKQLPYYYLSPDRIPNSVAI
Experimental: 5-Lipoxygenase inhibitory activity of the present compounds was determined by a method according to procedures described in "J. Biol. Chem., Vol. 256, pages 4156-4159, (1981, Ibid. Vol. 258, pages 5754-5758 (1983).
(1) Preparation of Test Cells
A guinea pig (Hartley strain) (500-650 g body weight) was intraperitoneally administered with 2%-casein solution in 3/50 the volume of body weight. 14 Hours after the administration, the animal was sacrificed by bleeding and the peritoneal cavity was washed with Dulbecco's phosphate buffered saline (PBS) containing 3 U/ml of heparin and the exudate cells were harvested. The sample of cells was washed twice with Dulbecco's PBS (-), then the cells were suspended in Dulbecco's PBS (-), containing 1 mM of calcium chloride and 5.5 mM of glucose, so as to make a suspension having the concentration of 2.5×10^7 cells/ml.
To 0.2 ml of the above-mentioned cell suspension was added 10^-5 M of Indomethacine, and incubated at 30° C. for 2 minutes. Each of the appropriate concentrations of test compounds was added to the suspension respectively, further incubated for 2 minutes. Next, 10 μm of Ionophore A23187 (manufactured by Calbiochem-Behring, San Diego, Calif., U. S. A) was added to the suspension, further, 10 μm of ^14 C-arachidonic acid (manufactured by Amersham Japan, Ltd., Tokyo, Japan) was added and initiated the reaction. 3 Minutes after the initiation of the reaction, 0.1 ml of 0.2M-citric acid was added so as to terminate the reaction. 1.2 Milliliters of ethyl acetate was added to the reaction mixture and shaked for 5 minutes. The reaction mixture was centrifuged at 3,000 rpm for 5 minutes so as to separate the organic layer from the aqueous layer. 1 Milliliter of the organic layer (the upper layer) was dehydrated by passing through a mini-column packed with anhydrous sodium sulfate. The dehydrated organic layer was dried under nitrogen gas stream. The residue obtained was dissolved in ethyl acetate, and the total amount of the ethyl acetate solution was spotted onto thin layer chromochromatography (TCL) plate (Art. 11845 manufactured by E. Merck A. G.). The TCL was carried out with a mixed solvent of diethyl ether:petroleum:ether:acetic acid (50:50:1 volume/volume), then the radioactive metabolites on the plate were detected by using "Ultrafilm ^3 H" (a trademark for a X-ray film, manufactured by LKB Co.). Each fractions corresponding to the metabolites was scraped in to a scintillation vial, and 5 ml of "Scintilator ACS-II" (manufactured by Amersham Japan, Ltd.), was added then the radio-activity was determined by means of a liquid scintillation counter.

[1] = system: SRS-A release from lung fragments; assay: Inhibition of SRS-A release from sensitized guinea pig lung fragments; assay type: cell-based, guinea pig (Hartley strain); conditions: Cavia porcellus
Experimental: Inhibitory activities on the release of SRS-A and histamine of the present compounds were determined.
A male guinea pig (Hartley strain) (body weight: about 300 g) was sensitized by a method according to P. Anderson: "Int. Archs. Allergey appln. Immunol., Vol. 64, pages 249-258 (1981). Thus, 30 mg/kg of cyclophosphamide was intraperitoneally administered to the guinea pig, and 2 days after 1 microgram of ovalbumin (manufactured by Sigma Chemical Co., St. Louis, Mo. U. S. A.) together with 10 mg of aluminium hydroxide gel were intraperitoneally administered so as to have the animal sesitized.
50 Days after the sesitization, the animal was killed by exsanguination, and the lung was isolated from the animal and was perfused with 20 ml of Tyrode's solution, then immersed in an ice-cooled Tyrode's solution. The parenchyma of the lung was cut by using McIlwain-type tissue chopper to make it into fragments of lung having 2 mm square and the fragments were washed with Tyrode's solution. 400 Milligrams of sectiles of lung were suspended in 3.6 ml of Tyrode's solution, and this suspension was preincubated at 37° C. for 5 minutes, then 4 microliters of dimethyl sulfoxide solution of the test compound, in the case of control 4 microliters of dimethyl sulfoxide alone was added to the suspension. 5 Minutes after, 0.4 ml of 100 micrograms/ml of ovalbumin solution added so as to release SRS-A for 10 minutes. The suspension was ice-cooled and filtered through gauze, the filtrate was centrifuged at 2,000 rpm for 10 minutes and the supernatant was collected. The supernatant was stored in freezed state at -80° C. until bio-assay was conducted.
Amounts of SRS-A and histamine contained in the supernatant were determined by bio-assay using ileum of guinea pig.
A piece of the ileum (2-3 cm of length) positioned from 15-25 cm from the opening portion of ileocecum was isolated from a male guinea pig (Hartley strain) (body weight: 400-600 g) which was fasted for 24 hours. The piece of ileum was hanged vertically in a Magnus tube which was filled with 10 ml of Tyrode's solution containing 10^-7 M of atropine sulfate under air stream conditions. The isotonic contraction of the piece of the ileum was measured at 0.5 g of load by using an isotonic transducer "TD-112S" (manufactured by Nihon Koden Co., Ltd.). The measurements were carried out after the reaction to histamine of the piece of ileum was kept constant. Bioassay of histamine was measured by using the value of contraction shown in 30 seconds after the addition of the supernatant. Bioassay of on SRS-A was measured by using the value of contraction shown at 2 minutes after the addition of the supernatant in the presence of 10^-6 M of pyrilamine (manufactured by Sigma Chemical Co.), and compared with the standard curve of crude SRS-A released from the fragments of the lung.

[2] = Table 2B, 3 μM, read-out: Inhibitory activities on SRS-A (%)
[3] = Table 2B, 30 μM, read-out: Inhibitory activities on SRS-A (%)
[4] = Table 2B, read-out: Inhibitory activities on SRS-A (%)

SMILES | inhibition at 3 µM (5-lipoxygenase) [%] | inhibition at 10 µM (5-lipoxygenase) [%] | inhibition at 1 µM (5-lipoxygenase) [%] | inhibition at 0.3 µM (5-lipoxygenase) [%] | inhibition at 0.1 µM (5-lipoxygenase) [%] | also measured
CCCC/C=C\CCCCCCCCCC1=CC(=O)C=C(OC)C1=O [Test Compound No. 1, 5-Methoxy-3-(Z-10-pentadecenyl)-1,4-benzoquinone] | 13 | 81 | 10 |  |  | inhibition at 30 µM (5-lipoxygenase): 87%
COC1=CC(=O)C(OC)=C(CCCCCCCC2OC2CCCCCCCC2=C(OC)C(=O)C=C(OC)C2=O)C1=O (stereo not shown) [Test Compound No. 5, 1,16-(2,5-Dimethoxy-1,4-benzoquinon-3-yl)-8,9-epoxyhexadecane] | 86 |  | 86 | 24 | 17 | 
COC1=CC(=O)C(O)=C(CCCCCCC/C=C\CCCCCCCC2=C(O)C(=O)C(C)=C(OC)C2=O)C1=O [Test Compound No. 3, 1-(5-Methoxy-2-hydroxy-1,4-benzoquinon-3-yl)-16-(5-methoxy-2-hydroxy-6-methyl-1,4-benzoquinon-3-yl)-Z-8-hexadecene] | 95 | 97 | 86 | 44 | 4 | inhibition at 30 µM (5-lipoxygenase): 96%
COC1=CC(=O)C(O)=C(CCCCCCCC2OC2CCCCCCCC2=C(O)C(=O)C=C(OC)C2=O)C1=O (stereo not shown) [Test Compound No. 4, 1,16-bis(5-Methoxy-2-hydroxy-1,4-benzoquinon-3-yl)-8,9-epoxyhexadecane] | 96 |  | 96 | 92 | 66 | 
COC1=CC(=O)C(OC)=C(CCC2=C(OC)C(=O)C=C(OC)C2=O)C1=O [Test Compound No. 23, 2,2'-Ethylenebis(3,6-dimethoxy-1,4-benzoquinone)] |  |  |  |  |  | inhibition at 30 µM [1, 3]: 28.6%
COCOc1cc(OC)c(OCOC)c(CCCCCc2c(OC)c(OCOC)cc(OC)c2OCOC)c1OC [Test Compound No. 36, 1,5-bis[1,4-Dimethoxy-2,5-bis(methoxymethoxy)-phen-3-yl]pentane] |  |  |  |  |  | inhibition at 3 µM [1, 2]: 12.1%; inhibition at 30 µM [1, 3]: 24.5%
CCCC/C=C\CCCCCCCC1=C(O)C(=O)C=C(OC)C1=O [Test Compound No. 2, 5-Methoxy-2-hydroxy-3-(Z-8-tridecenyl)-1,4-benzoquinone] |  |  | 67 | 22 | 10 | 
COC1=CC(=O)C(OC)=C(OCCCOC2=C(OC)C(=O)C=C(OC)C2=O)C1=O [Test Compound No. 42, 2,2'-Trimethylenedioxybis(3,6-dimethoxy-1,4-benzoquinone)] |  |  |  |  |  | inhibition at 1 µM [1, 4]: 28.4%; inhibition at 10 µM [1, 4]: 80%
CCCCC1=C(OC)C(=O)C(CCCCCC2=C(OC)C(=O)C(CCO)=C(OC)C2=O)=C(OC)C1=O [Test Compound No. 47, 1-(2,5-Dimethoxy-3-butyl-1,4-benzoquinon-6-yl)-[2,5-dimethoxy-3-(2-hydroxyethyl)-1,4-benzoquinon-6-yl]pentane] |  |  |  |  |  | inhibition at 1 µM [1, 4]: 15.8%; inhibition at 10 µM [1, 4]: 47.6%

Continued, in another order:

inhibition at 3 µM (5-lipoxygenase) [%] | inhibition at 10 µM (5-lipoxygenase) [%] | inhibition at 1 µM (5-lipoxygenase) [%] | inhibition at 0.3 µM (5-lipoxygenase) [%] | inhibition at 0.1 µM (5-lipoxygenase) [%] | SMILES | also measured
 |  | 89 | 79 | 13 | COC1=C(C)C(=O)C(OC)=C(CCCCCC2=C(OC)C(=O)C(C)=C(OC)C2=O)C1=O [Test Compound No. 17, 2,2'-Pentamethylenebis(3,6-dimethoxy-5-methyl-1,4-benzoquinone)] | inhibition at 3 µM ([1]; Table 2, dose 3 μM, read-out: Inhibition ratio (%) SRS-A): 56.3%; inhibition at 30 µM ([1]; Table 2, dose 30 μM, read-out: Inhibition ratio (%) SRS-A): 83.9%
92 | 91 | 75 | 39 |  | CCCCC#CCCCCCC1=C(OC)C(=O)C=C(OC)C1=O [compound 30] | inhibition at 3 µM [1, 2]: 23.8%; inhibition at 30 µM [1, 3]: 73.4%
91 | 89 | 87 | 51 |  | CCCC/C=C\CCCCCC1=C(OC)C(=O)C=C(OC)C1=O [Test Compound No. 33, 2,5-Dimethoxy-3-(Z-6-undecenyl)-1,4-benzoquinone] | inhibition at 3 µM [1, 2]: 19.6%; inhibition at 30 µM [1, 3]: 33.4%
40 | 74 | 12 |  |  | CCCCCCCCCCCCCC1=C(OC)C(=O)C=C(OC)C1=O [Test Compound No. 8, 2,5-Dimethoxy-3-tridecanyl-1,4-benzoquinone] | 
 |  | 58 | 29 | 7 | COC1=CC(=O)C(O)=C(CCCCCCC/C=C\CCCCCCCc2cc(O)c(C)c(O)c2)C1=O [Test Compound No. 6, 1-(2-Hydroxy-5-methoxy-1,4-benzoquinon-3-yl)-16-(4-methyl-3,5-dihydroxyphenyl)-Z-8-hexadecene] | 
80 |  | 70 | 28 | 24 | COC1=CC(=O)C(O)=C(CCCCCCC/C=C\CCCCCCCc2cc(O)cc(O)c2)C1=O [Test Compound No. 7, 1-(2-Hydroxy-5-methoxy-1,4-benzoquinon-3-yl)-16-(3,5-dihydroxyphenyl)-Z-8-hexadecene] | 
